For 62 molecules, IC50 results are on record in ChEMBL document CHEMBL5604062, “ASAP - ZIKV NS2B-NS3 protease fluorescence dose response” (2024).

One may read the IC50 as the concentration that gives 50% inhibition. The low end stands for inhibition by little substance, the high end for a need for much substance.

Values joined by “and” are separate entries in the source; they are usually repeats but may differ in a detail not shown here. Equal values may be shown once.

Nonstructural protein 3, sequence (A0A024AXB9 whole entry): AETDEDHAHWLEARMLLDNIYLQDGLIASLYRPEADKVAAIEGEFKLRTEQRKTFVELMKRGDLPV

This assay has as its target Nonstructural protein 3 (Zika virus, UniProt A0A024AXB9). Description: Functional biochemical assay to identify treatments for viral infectious disease that targets Zika NS2B-NS3 protease. Utilizing a direct enzyme activity measurement method, reading the fluorescence intensity is used to characterize the relative potency of inhibitors as IC50. Also noted: species or system PRVABC59.
Consider `CCc1sc(C(=O)Nc2cccc(-c3nnn[nH]3)c2)cc1C`, for which the IC50 was over 99.5 µM. In the case of `O=C(O)CCc1ccc(NC(=O)c2cc(Cl)cc(C3CC3)c2)cc1`, the IC50 was over 99.5 µM.

On to `CC(C)C[C@H](NC(=O)c1cc(Cl)cc(NC(=O)OCc2ccccc2)c1)c1nnn[nH]1`, for which the IC50 is over 99.5 µM. The figure for `Cc1c(C(=O)Nc2cccc(-c3nnn[nH]3)c2)sc2ccccc12` is over 99.5 µM; for `O=C(Nc1cc(Cl)cc(C(=O)NC[C@H]2C[C@@H]2C(=O)O)c1)OCc1ccccc1` it is over 99.5 µM. The figure for `CS(=O)(=O)c1cc(CN)cc([C@@H]2C[C@H]2c2cc(Cl)cc(NC(=O)OCc3ccccc3)c2)c1` is 43.3 µM; for `CCc1[nH]c(-c2ccccc2)cc1C(=O)Nc1cccc(-c2nnn[nH]2)c1` it is over 99.5 µM.

The molecule `CS(=O)(=O)NC(=O)c1cc(CN)cc(NC(=O)c2cc(Cl)cc(NC(=O)OCc3ccccc3)c2)c1` yielded an IC50 of 7.05 µM. The figure for `CC(=Cc1cc(Cl)cc(NC(=O)OCc2ccccc2)c1)c1cccc(CN)c1` is 5.26 µM; for `CCc1cc(C(=O)Nc2cccc(-c3nnn[nH]3)c2)ccc1Cl` it is over 99.5 µM; for `C[C@H](NC(=O)c1cc(Cl)cc(NC(=O)OCc2ccccc2)c1)C(=O)O` it is over 99.5 µM. The figure for `O=C(Nc1ccc(-n2nn[nH]c2=O)cc1)c1cc(Cl)cc(C2CC2)c1` is over 99.5 µM. The figure for `O=C(Nc1cc(Cl)cc(C(=O)Nc2cccc3c2OC[C@H](C(=O)O)C3)c1)OCc1ccccc1` is over 99.5 µM; for `O=C(Nc1cc(Cl)cc([C@H](C#CCO)Nc2cccc(-c3nn[nH]n3)c2)c1)OCc1ccccc1` it is 38.3 µM.

As for `O=C(Nc1cc(Cl)cc(C(=O)NCC[C@H]2C[C@@H]2C(=O)O)c1)OCc1ccccc1`, the IC50 was over 99.5 µM. The figure for `Cc1c(C(=O)Nc2cc(CCCN)ccc2F)cc(C2CC2)n1C` is 69.2 µM; for `Clc1cc(/C=C/c2cccc(-c3nn[nH]n3)c2)c2cn[nH]c2c1` it is over 99.5 µM. On to `N#C[C@H](Nc1cccc(-c2nn[nH]n2)c1)c1cc(Cl)cc(NC(=O)OCc2ccccc2)c1`, for which the IC50 is 24.6 µM and 27.6 µM and 24.8 µM. The figure for `O=C(Nc1ccc2c(c1)CNC2)c1cc(Cl)cc2[nH]ncc12` is < 50 nM (2×) and 139 nM and 164 nM; for `CCCc1sc(C(=O)Nc2cccc(-c3nnn[nH]3)c2)cc1CC` it is over 99.5 µM.

`C=CC[C@H](Nc1cccc(-c2nn[nH]n2)c1)c1cc(Cl)cc2[nH]ncc12` gave an IC50 of over 99.5 µM. Consider `Cc1c(C(=O)Nc2ccc([C@@H](C)N)cc2)cc(C2CC2)n1C`, for which the IC50 was over 99.5 µM. Molecule `CNC(=O)[C@H](Nc1cccc(-c2nn[nH]n2)c1)c1cc(Cl)cc(NC(=O)OCc2ccccc2)c1` yielded an IC50 of over 99.5 µM. Molecule `O=C(O)CCCc1ccc(NC(=O)c2cc(Cl)cc(NC(=O)OCc3ccccc3)c2)cc1` displayed an IC50 of over 99.5 µM. In turn, `O=C(Nc1cc(Cl)cc(C(=O)Nc2cncc(C(=O)O)c2)c1)OCc1ccccc1` gave an IC50 of over 99.5 µM.

`NCCc1ccc([C@H]2C[C@@H]2c2cc(Cl)cc(NC(=O)OCc3ccccc3)c2)cc1` returned an IC50 of 2.53 µM. The figure for `CNC(=O)[C@H](Nc1cccc(-c2nn[nH]n2)c1)c1cc(Cl)cc2[nH]ncc12` is 9.2 µM; for `NCc1ccc2nc(-c3cc(Cl)cc(NC(=O)OCc4ccccc4)c3)c(CCCO)cc2c1` it is 51.9 µM. Take `Clc1cc(CCc2cccc(-c3nn[nH]n3)c2)c2cn[nH]c2c1`: the half-maximal inhibitory concentration (IC50) was over 99.5 µM. Molecule `O=C(Nc1cc(Cl)cc(-c2ccc3[nH]c(C(=O)O)cc3c2)c1)OCc1ccccc1` yielded a half-maximal inhibitory concentration (IC50) of 7.58 µM. The figure for `O=C(Nc1ccc(-c2nnn[nH]2)cc1)c1cc(Cl)cc(C2CC2)c1` is over 99.5 µM; for `O=C(O)Cn1ncc2cc(-c3cc(Cl)cc(NC(=O)OCc4ccccc4)c3)ccc21` it is 45.2 µM; for `O=C(Nc1cc(Cl)cc(S(=O)(=O)Nc2cccc(-c3nn[nH]n3)c2)c1)OCc1ccccc1` it is over 99.5 µM. `CCc1nc(C)c(C(=O)Nc2cccc(-c3nnn[nH]3)c2)s1`: the IC50 was over 99.5 µM. The figure for `C[C@H](C(=O)O)c1cccc(NC(=O)c2cc(Cl)cc(NC(=O)OCc3ccccc3)c2)c1` is over 99.5 µM; for `O=C(Nc1cc(Cl)cc([C@H]2C[C@@H]2c2cccc(C3CCNCC3)c2)c1)OCc1ccccc1` it is 2.64 µM; for `C=CC[C@H](Nc1cc(CN)ccn1)c1cc(Cl)cc(NC(=O)OCc2ccccc2)c1` it is over 99.5 µM. The figure for `CNC(=O)[C@H](Nc1cccc(C(=O)O)c1)c1cc(Cl)cc2[nH]ncc12` is over 99.5 µM; for `O=C(Nc1cc(Cl)cc([C@H](C#CCO)Nc2ccc(-c3nn[nH]n3)cc2)c1)OCc1ccccc1` it is 22.7 µM. `C#C[C@H](Nc1cccc(-c2nn[nH]n2)c1)c1cc(Cl)cc(NC(=O)OCc2ccccc2)c1` yielded an IC50 of 22.9 µM. In turn, `Cc1c(C(=O)Nc2cccc(CN)c2)cc(C2CCC2)n1C` yielded an IC50 of over 99.5 µM. The figure for `Cc1c(C(=O)Nc2ccc(CN)cc2)cc(C2CC2)n1C` is over 99.5 µM.

`CN1C[C@H](c2cccc(CN)c2)[C@@H](c2cc(Cl)cc(NC(=O)OCc3ccccc3)c2)C1` displayed an IC50 of over 99.5 µM. In turn, `O=C(Nc1cc(Cl)cc(C(=O)N[C@H]2CCCC[C@@H]2C(=O)O)c1)OCc1ccccc1` showed an IC50 of over 99.5 µM.

In turn, `Cc1c(C(=O)Nc2cc(CN)ccc2F)cc(C2CC2)n1C` gave an IC50 of over 99.5 µM. `CNC(=O)[C@H](Nc1cc(Cl)cc(NC(=O)OCc2ccccc2)c1)c1cccc(-c2nn[nH]n2)c1` registered an IC50 of over 99.5 µM. The figure for `NCc1cccc([C@H](CCCO)Nc2cc(Cl)cc(NC(=O)OCc3ccccc3)c2)c1` is 27.4 µM; for `O=C(Nc1cc(Cl)cc(C(=O)Nc2cccc(C3(C(=O)O)CCC3)c2)c1)OCc1ccccc1` it is 69 µM; for `O=C(Nc1cc(Cl)cc(C(=O)Nc2cc(-c3nnn[nH]3)ccc2F)c1)OCc1ccccc1` it is 41.5 µM. Consider `CS(=O)(=O)NC(=O)c1cc(CN)cc([C@@H]2C[C@H]2c2cc(Cl)cc(NC(=O)OCc3ccccc3)c2)c1`, for which the IC50 was over 99.5 µM. Molecule `N#C[C@H](Nc1ccc(-c2nn[nH]n2)cc1)c1cc(Cl)cc(NC(=O)OCc2ccccc2)c1` showed an IC50 of 19.3 µM. The molecule `CCc1cc(C(=O)Nc2cccc(-c3nnn[nH]3)c2)sc1C` showed an IC50 of over 99.5 µM. As for `O=C(O)CCCc1cccc(NC(=O)c2cc(Cl)cc(NC(=O)OCc3ccccc3)c2)c1`, the midpoint of inhibition, the IC50, lay at 84.3 µM.

As to `C=CC[C@H](Nc1cccc(-c2nn[nH]n2)c1)c1cc(Cl)cc(NC(=O)OCc2ccccc2)c1`, half-maximal inhibition (IC50) required 9.32 µM. The figure for `O=C(Nc1cc(Cl)cc(C(=O)N[C@H](c2nn[nH]n2)C2CCNCC2)c1)OCc1ccccc1` is over 99.5 µM. In turn, `O=C(O)CCc1cccc(NC(=O)c2cc(Cl)cc(NC(=O)OCc3ccccc3)c2)c1` returned an IC50 of over 99.5 µM. The figure for `NCc1cccc(N[C@H](CCCO)c2cc(Cl)cc(NC(=O)OCc3ccccc3)c2)c1` is 62.3 µM; for `N#C[C@H](Nc1cc(Cl)cc(NC(=O)OCc2ccccc2)c1)c1ccc(-c2nn[nH]n2)cc1` it is 16.8 µM.

`CNC(=O)C[C@H](Nc1cccc(F)n1)c1cc(Cl)cc(Br)c1` came in with an IC50 of over 99.5 µM. `COc1c(C(N)=O)cc(Cl)cc1S(=O)(=O)Nc1cccc(-c2nnn[nH]2)c1`: the IC50 is over 99.5 µM. In the case of `O=C(Nc1cc(Cl)cc(C(=O)Nc2ccc([C@@H]3C[C@H]3C(=O)O)cc2)c1)OCc1ccccc1`, the IC50 is 44.3 µM. Take `CCc1cc(C(=O)Nc2cccc(-c3nnn[nH]3)c2)nn1-c1ccccc1`: the IC50 was over 99.5 µM.
